From patent US20110319338A1, “PEPTIDES THAT BIND EUKARYOTIC TRANSLATION INITIATION FACTOR 4E” (The Board of Regents of the University of Texas System, priority 2008, published 2011)
Square brackets hold non-standard residues; d marks the D form. Ends that are not written are not given here.

Key:
[1] = system: GnRH-RI-positive and -negative lines; test: Cell viability assay across cell lines; type: cell-based; conditions: 3 days
Method: FIGS. 3A-3H. Uptake, binding and inhibitory effects of [DLys6]GnRH-4EBP fusion peptides. (FIG. 3A) Sequences of [DLys6]GnRH, and wild-type and mutant 4EBP1 peptides fused to the agonist. (FIG. 3B) Western blot of GnRH-RI levels in OVCAR-3, ES-2, MDA-MB-231, BJ, HUVEC and SKOV3 cells. (FIG. 3C) Detection of biotinylated peptides in OVCAR-3 and SKOV3 by Texas Red-conjugated streptavidin at 16 hours after peptide addition (3 micromoles per liter). In (FIGS. 3D and 3E), biotinylated peptides were incubated with OVCAR-3 cell lysate as described in FIG. 1. In (FIG. 3D), peptide was pulled down using streptavidin-agarose. Precipitates (P) and supernatants (S) were analyzed by Western blot using eIF4E antibody. In (FIG. 3E), immunoprecipitation was performed using eIF4E antibody, and Western blot performed using eIF4G antibody. […]
FIGS. 14A-14B. […] Viability of cells at 3 days after peptide addition was measured by crystal violet staining and is expressed relative to viability of cells incubated with no peptide. […] Staining of cells with FITC-Annexin V and PI was analyzed by flow cytometry.
Cell viability and TUNEL assays. […] Cells were stained with 0.5% crystal violet solution, and absorbance measured at 570 nm. […] Cells were fixed in 70% ethanol and the extent of apoptosis was determined by flow cytometric analysis of TUNEL-staining using the APO-BRDU kit (Phoenix Flow Systems, San Diego Calif.). […]

[2] = target: T1, binding of eIF4E to eIF4G in SKOV3+GnRH-RI cells (Homo sapiens, UniProt P06730); test: eIF4E immunoprecipitation / eIF4G Western blot of lysates of peptide-treated cells; type: cell-based; conditions: 10 micromoles per liter, 24 hours
T1 construct: endogenous in cells; host or cells: SKOV3+GnRH-RI cells
T1 sequence (P06730 2-217 limits assumed): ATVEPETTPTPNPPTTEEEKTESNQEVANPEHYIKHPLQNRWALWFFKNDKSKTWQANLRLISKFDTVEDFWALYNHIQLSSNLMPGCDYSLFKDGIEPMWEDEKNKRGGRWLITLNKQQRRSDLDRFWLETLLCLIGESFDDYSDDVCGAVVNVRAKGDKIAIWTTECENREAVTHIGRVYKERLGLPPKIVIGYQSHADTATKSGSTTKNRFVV
Method: FIGS. 8A-8D. Effect of [DLys6] GnRH-4EBP1 peptide in SKOV3 cells stably expressing GnRH-RI. (FIG. 8A) Western blot analysis of GnRH-RI in parental SKOV3 cells and SKOV3 cells transfected with GnRH-RI. In (FIG. 8B), SKOV3+GnRH-RI cells were treated with biotinylated peptides at a final concentration of 10 micromoles per liter or incubated without peptide. At 24 hours after treatment, lysates were prepared from cells. Peptide was pulled-down using streptavidin-agarose. Precipitates and supernatants were analyzed by Western blot using eIF4E antibody. (FIG. 8C) parental SKOV3, SKOV3+GnRH-RI and ES-2 cells were treated with the indicated peptides (10 micromoles per liter) or incubated without peptide. At 24 hours after treatment, lysates were prepared from cells. Immunoprecipitation was performed using eIF4E antibody, and Western blot of precipitates was performed using eIF4G antibody. Western blot of whole cell lysates of treated cells was performed using antibodies to eIF4G, eIF4E and actin. (FIG. 8D) TUNEL-staining of parental SKOV3 and SKOV3+GnRH-RI cells at 3 days following treatment with peptide at a final concentration of 30 micromoles per liter.
Immunoprecipitation (IP) and Western blotting. Biotinylated peptides were incubated with 250 micrograms of cell lysate at a final concentration of 3 micromoles per liter for 6 hours at 4° C. […]

## [DLys6]GnRH: GnRH agonist with a D-amino acid substitution at position 6; GnRH-RI-targeting moiety (QHWSY[dK]LRPG; not fully specified (residue 1, C-terminus); ends and bridges not checked)
[1]
  cell growth across lines: did not significantly inhibit cell growth
[2]
  binding of eIF4E to eIF4G in treated cells: not inhibited
